Assay results as given in patent US4122034A, “Antimicrobial compositions” (Schering Corporation, priority 1975, dated 1978).
Values after ≈ are worked out from the molar mass of the structure shown.

Assays:
T. mentagrophytes = test: Effect against topical T. mentagrophytes infections in guinea pigs (Table VI); assay type: in vivo; parameters: Average Sum of lesion scores, Days 1-5 / Average Sum of lesion scores, Days 1-10: scale not given here; details: for Average Sum of lesion scores, Days 1-5: untreated controls 14.8; for Average Sum of lesion scores, Days 1-10: untreated controls 38.2
Protocol: All the tests were carried out and (when necessary) scored under standard conditions. "MIC" means "minimum inhibitory concentration."
Effect of some 2-aminoalkyl-3-phenylindoles of the formula II
against topical T. mentagrophytes infections in guinea pigs.

Streptococcus pyogenes = test: In vitro antibacterial activity, dilution in Mueller Hinton Agar (Table I); assay type: cell-based
In short: (§1)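 Agar dilution at pH 7.4, run and scored under standard conditions. Values are minimum inhibitory concentrations (MIC).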

Proteus vulgaris = test: as above; assay type: cell-based; details: strain Napol, Mueller Hinton Agar pH 7.4
In short: as §1

Proteus rettgeri = test: as above; assay type: cell-based; details: Providencia rettgeri; 'Proteus rettgeri mirabilis' [sic]; Mueller Hinton Agar pH 7.4
In short: as §1

Proteus morganii = test: as above; assay type: cell-based; details: Morganella morganii; strain Valz; Mueller Hinton Agar pH 7.4
In short: as §1

Pseudomonas acruginosa = test: as above; assay type: cell-based
In short: as §1

Escherichia coli = test: as above; assay type: cell-based
In short: as §1

Salmonella = test: as above; assay type: cell-based
In short: as §1

Klebsiella = test: as above; assay type: cell-based
In short: as §1

[1] = pH 7.4, strain 27, Mueller Hinton Agar pH 7.4
[2] = pH 7.4, strain C, Mueller Hinton Agar pH 7.4
[3] = pH 7.4, strain Cruz, Mueller Hinton Agar pH 7.4
[4] = pH 7.4, strain 130, Mueller Hinton Agar pH 7.4
[5] = pH 7.4, strain 138, Mueller Hinton Agar pH 7.4
[6] = pH 7.4, strain 762, Mueller Hinton Agar pH 7.4
[7] = pH 7.4, strain 8709, Mueller Hinton Agar pH 7.4
[8] = pH 7.4, strain Trav. 1, Mueller Hinton Agar pH 7.4
[9] = pH 7.4, strain 777, Mueller Hinton Agar pH 7.4
[10] = pH 7.4, strain 1574-1, Mueller Hinton Agar pH 7.4
[11] = pH 7.4, strain 4195, Mueller Hinton Agar pH 7.4
[12] = pH 7.4, strain 10536, Mueller Hinton Agar pH 7.4
[13] = pH 7.4, strain JR66, Mueller Hinton Agar pH 7.4
[14] = TYPHI, pH 7.4, B typhi, Mueller Hinton Agar pH 7.4
[15] = pH 7.4, C1 Oao, Mueller Hinton Agar pH 7.4
[16] = pH 7.4, C2 Cuban, Mueller Hinton Agar pH 7.4
[17] = pH 7.4, C2 Napc, Mueller Hinton Agar pH 7.4
[18] = pH 7.4, Salmonella ent. 1, Mueller Hinton Agar pH 7.4
[19] = pH 7.4, strain 121, Mueller Hinton Agar pH 7.4
[20] = pH 7.4, strain 3020, Mueller Hinton Agar pH 7.4
[21] = pH 7.4, strain AD17, Mueller Hinton Agar pH 7.4
[22] = pH 7.4, strain AD22, Mueller Hinton Agar pH 7.4
[23] = pH 7.4, strain G3694, Mueller Hinton Agar pH 7.4

SMILES | Average No. of Days to become negative, Cultures (T. mentagrophytes; concentration 1%) [days] | Average No. of Days to become negative, Lesion (T. mentagrophytes; concentration 1%) [days] | Average Sum of lesion scores, Days 1-5 (T. mentagrophytes; concentration 1%) | Average Sum of lesion scores, Days 1-10 (T. mentagrophytes; concentration 1%) | Average No. of Days to become negative, Cultures (T. mentagrophytes; concentration 4%) [days] | Average No. of Days to become negative, Lesion (T. mentagrophytes; concentration 4%) [days] | Average Sum of lesion scores, Days 1-5 (T. mentagrophytes; concentration 4%) | Average Sum of lesion scores, Days 1-10 (T. mentagrophytes; concentration 4%) | MIC (Streptococcus pyogenes; [1]) [µg/mL] | MIC (Streptococcus pyogenes; [2]) [µg/mL] | MIC (Streptococcus pyogenes; [3]) [µg/mL] | MIC (Proteus vulgaris) [µg/mL] | MIC (Proteus rettgeri) [µg/mL] | MIC (Proteus morganii) [µg/mL] | MIC (Pseudomonas acruginosa; [4]) [µg/mL] | MIC (Pseudomonas acruginosa; [5]) [µg/mL] | MIC (Pseudomonas acruginosa; [6]) [µg/mL] | MIC (Pseudomonas acruginosa; [7]) [µg/mL] | MIC (Pseudomonas acruginosa; [8]) [µg/mL] | MIC (Escherichia coli; [9]) [µg/mL] | other results
NCc1[nH]c2ccc(Cl)cc2c1-c1ccccc1F [A, 2-Aminomethyl-5-chloro-3-(2-fluorophenyl)indole] | 6.8 | 9.0 | 11.8 | 16.0 | 6.0 | 8.8 | 11.2 | 14.8 | 7.5 (≈ 27.3 µM) | 7.5 (≈ 27.3 µM) | 3 (≈ 10.9 µM) | 17.5 (≈ 63.7 µM) | 17.5 (≈ 63.7 µM) | 17.5 (≈ 63.7 µM) | 17.5 (≈ 63.7 µM) | 17.5 (≈ 63.7 µM) | 17.5 (≈ 63.7 µM) | 17.5 (≈ 63.7 µM) | 17.5 (≈ 63.7 µM) | 3 (≈ 10.9 µM) | MIC (Escherichia coli; [10]): 7.5 µg/mL (≈ 27.3 µM); MIC (Escherichia coli; [11]): 3 µg/mL (≈ 10.9 µM); MIC (Escherichia coli; [12]): 7.5 µg/mL (≈ 27.3 µM); MIC (Escherichia coli; [13]): 3 µg/mL (≈ 10.9 µM); MIC (Salmonella; [14]): 7.5 µg/mL (≈ 27.3 µM); MIC (Salmonella; [15]): 7.5 µg/mL (≈ 27.3 µM); MIC (Salmonella; [16]): 7.5 µg/mL (≈ 27.3 µM); MIC (Salmonella; [17]): 3 µg/mL (≈ 10.9 µM); MIC (Salmonella; [18]): 7.5 µg/mL (≈ 27.3 µM); MIC (Klebsiella; [19]): 7.5 µg/mL (≈ 27.3 µM); MIC (Klebsiella; [20]): 7.5 µg/mL (≈ 27.3 µM); MIC (Klebsiella; [21]): 7.5 µg/mL (≈ 27.3 µM); MIC (Klebsiella; [22]): 7.5 µg/mL (≈ 27.3 µM); MIC (Klebsiella; [23]): 7.5 µg/mL (≈ 27.3 µM)
NCc1[nH]c2ccc(Cl)cc2c1-c1c(F)cccc1F [B, 2-aminomethyl-5-chloro-3-(2,6-difluorophenyl)indole] | 9.6 | 14.2 | 11.6 | 20.0 | 5.0 | 7.2 | 9.2 | 10.0 | 7.5 (≈ 25.6 µM) | 17.5 (≈ 59.8 µM) | 3 (≈ 10.2 µM) | 17.5 (≈ 59.8 µM) | 17.5 (≈ 59.8 µM) | 17.5 (≈ 59.8 µM) | 17.5 (≈ 59.8 µM) | 17.5 (≈ 59.8 µM) | 17.5 (≈ 59.8 µM) | 17.5 (≈ 59.8 µM) | 17.5 (≈ 59.8 µM) | 7.5 (≈ 25.6 µM) | MIC (Escherichia coli; [10]): 7.5 µg/mL (≈ 25.6 µM); MIC (Escherichia coli; [11]): 7.5 µg/mL (≈ 25.6 µM); MIC (Escherichia coli; [12]): 7.5 µg/mL (≈ 25.6 µM); MIC (Escherichia coli; [13]): 7.5 µg/mL (≈ 25.6 µM); MIC (Salmonella; [14]): 7.5 µg/mL (≈ 25.6 µM); MIC (Salmonella; [15]): 7.5 µg/mL (≈ 25.6 µM); MIC (Salmonella; [16]): 7.5 µg/mL (≈ 25.6 µM); MIC (Salmonella; [17]): 7.5 µg/mL (≈ 25.6 µM); MIC (Salmonella; [18]): 7.5 µg/mL (≈ 25.6 µM); MIC (Klebsiella; [19]): 17.5 µg/mL (≈ 59.8 µM); MIC (Klebsiella; [20]): 7.5 µg/mL (≈ 25.6 µM); MIC (Klebsiella; [21]): 17.5 µg/mL (≈ 59.8 µM); MIC (Klebsiella; [22]): 7.5 µg/mL (≈ 25.6 µM); MIC (Klebsiella; [23]): 7.5 µg/mL (≈ 25.6 µM)
NCc1[nH]c2ccc(Cl)cc2c1-c1ccccc1 [C, 2-(1-aminomethyl)-5-chloro-3-phenylindole] | 12.4 | 14.4 | 13.0 | 25.0 | 5.6 | 7.4 | 10.0 | 11.8 | 7.5 (≈ 29.2 µM) | 7.5 (≈ 29.2 µM) | 3 (≈ 11.7 µM) | 7.5 (≈ 29.2 µM) | 7.5 (≈ 29.2 µM) | 7.5 (≈ 29.2 µM) | 17.5 (≈ 68.2 µM) | 17.5 (≈ 68.2 µM) | 37.5 (≈ 146 µM) | 17.5 (≈ 68.2 µM) | 17.5 (≈ 68.2 µM) | 3 (≈ 11.7 µM) | MIC (Escherichia coli; [10]): 3 µg/mL (≈ 11.7 µM); MIC (Escherichia coli; [11]): 3 µg/mL (≈ 11.7 µM); MIC (Escherichia coli; [12]): 7.5 µg/mL (≈ 29.2 µM); MIC (Escherichia coli; [13]): 3 µg/mL (≈ 11.7 µM); MIC (Salmonella; [14]): 3 µg/mL (≈ 11.7 µM); MIC (Salmonella; [15]): 3 µg/mL (≈ 11.7 µM); MIC (Salmonella; [16]): 3 µg/mL (≈ 11.7 µM); MIC (Salmonella; [17]): 3 µg/mL (≈ 11.7 µM); MIC (Salmonella; [18]): 7.5 µg/mL (≈ 29.2 µM); MIC (Klebsiella; [19]): 3 µg/mL (≈ 11.7 µM); MIC (Klebsiella; [20]): 3 µg/mL (≈ 11.7 µM); MIC (Klebsiella; [21]): 7.5 µg/mL (≈ 29.2 µM); MIC (Klebsiella; [22]): 3 µg/mL (≈ 11.7 µM); MIC (Klebsiella; [23]): 3 µg/mL (≈ 11.7 µM)
NCc1[nH]c2cc(Br)c(Cl)cc2c1-c1ccccc1 [D, 2-aminomethyl-6-bromo-5-chloro-3-phenylindole] | > 22 | > 22 | 11.6 | 29.2 | 6.2 | 8.8 | 11.8 | 14.2 | 3 (≈ 8.94 µM) | 3 (≈ 8.94 µM) | 3 (≈ 8.94 µM) | 3 (≈ 8.94 µM) | 7.5 (≈ 22.3 µM) | 3 (≈ 8.94 µM) | 17.5 (≈ 52.1 µM) | 7.5 (≈ 22.3 µM) | 17.5 (≈ 52.1 µM) | 7.5 (≈ 22.3 µM) | 7.5 (≈ 22.3 µM) | 3 (≈ 8.94 µM) | MIC (Escherichia coli; [10]): 3 µg/mL (≈ 8.94 µM); MIC (Escherichia coli; [11]): 3 µg/mL (≈ 8.94 µM); MIC (Escherichia coli; [12]): 3 µg/mL (≈ 8.94 µM); MIC (Escherichia coli; [13]): 3 µg/mL (≈ 8.94 µM); MIC (Salmonella; [14]): 3 µg/mL (≈ 8.94 µM); MIC (Salmonella; [15]): 3 µg/mL (≈ 8.94 µM); MIC (Salmonella; [16]): 3 µg/mL (≈ 8.94 µM); MIC (Salmonella; [17]): 3 µg/mL (≈ 8.94 µM); MIC (Salmonella; [18]): 3 µg/mL (≈ 8.94 µM); MIC (Klebsiella; [19]): 3 µg/mL (≈ 8.94 µM); MIC (Klebsiella; [20]): 3 µg/mL (≈ 8.94 µM); MIC (Klebsiella; [21]): 3 µg/mL (≈ 8.94 µM); MIC (Klebsiella; [22]): 3 µg/mL (≈ 8.94 µM); MIC (Klebsiella; [23]): 3 µg/mL (≈ 8.94 µM)
NCc1[nH]c2ccc(Cl)cc2c1-c1ccc(Cl)cc1Cl [E] | > 22 | > 22 | 12.6 | 34.2 | 6.6 | 9.2 | 11.6 | 15.2 | 3 (≈ 9.21 µM) | 3 (≈ 9.21 µM) | 0.8 (≈ 2.46 µM) | 3 (≈ 9.21 µM) | 17.5 (≈ 53.7 µM) | 17.5 (≈ 53.7 µM) | 7.5 (≈ 23 µM) | 17.5 (≈ 53.7 µM) | 17.5 (≈ 53.7 µM) | 7.5 (≈ 23 µM) | 17.5 (≈ 53.7 µM) | 3 (≈ 9.21 µM) | MIC (Escherichia coli; [10]): 3 µg/mL (≈ 9.21 µM); MIC (Escherichia coli; [11]): 3 µg/mL (≈ 9.21 µM); MIC (Escherichia coli; [12]): 3 µg/mL (≈ 9.21 µM); MIC (Escherichia coli; [13]): 3 µg/mL (≈ 9.21 µM); MIC (Salmonella; [14]): 3 µg/mL (≈ 9.21 µM); MIC (Salmonella; [15]): 3 µg/mL (≈ 9.21 µM); MIC (Salmonella; [16]): 3 µg/mL (≈ 9.21 µM); MIC (Salmonella; [17]): 3 µg/mL (≈ 9.21 µM); MIC (Salmonella; [18]): 3 µg/mL (≈ 9.21 µM); MIC (Klebsiella; [19]): 7.5 µg/mL (≈ 23 µM); MIC (Klebsiella; [20]): 3 µg/mL (≈ 9.21 µM); MIC (Klebsiella; [21]): 7.5 µg/mL (≈ 23 µM); MIC (Klebsiella; [22]): 3 µg/mL (≈ 9.21 µM); MIC (Klebsiella; [23]): 3 µg/mL (≈ 9.21 µM)
